# Reference: patent US10457710B2, “Antimicrobial peptides, their variants and uses” (priority 2015, dated 2019)
# Where a SMILES comes first, the peptide text is derived from it. [ ]: non-standard residue; d: D form.
# What was measured:
# Format in all cases: cell-based
# [1] = test system: C. parapsilosis; assay: MIC, clinical yeast strains
# In short: (§1)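 Clinical isolates were exposed to peptide concentrations from 0.125 up to 128 μg/ml at a starting density of 5.0×10^5 cfu/ml. Antifungal testing took place in potato dextrose broth at 37° C for 20 to 24 hours, and the end point was the absence of visible growth.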
# [2] = test system: Candida albicans; assay: MIC, clinical yeast strains
# In short: as §1
# [3] = test system: C. glabrata; assay: MIC, clinical yeast strains
# In short: as §1
# [4] = test system: clinical strains of Proteus mirabilis; assay: MIC, microdilution, clinical strains; details: 0.02% BSA, 0.2% acetic acid
# In short: (§2)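 MIC = lowest peptide concentration without visual growth after 20–24 h at 37° C. Range 0.125–128 μg/ml, inoculum 5.0×10^5 cfu/ml, microdilution format. Antifungal tests used potato dextrose broth; bacterial tests used MH broth.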
# [5] = test system: clinical strains of E. coli; assay: MIC, microdilution, clinical strains
# In short: as §2
# [6] = test system: clinical strains of S. pneumoniae; assay: MIC, microdilution, clinical strains; details: 0.02% BSA, 0.2% acetic acid
# In short: as §2
# [7] = test system: clinical strains of Serratia marcescens; assay: MIC, microdilution, clinical strains; details: 0.02% BSA, 0.2% acetic acid
# In short: as §2
# [8] = test system: clinical strains of P. aeruginosa; assay: MIC, microdilution, clinical strains; details: 0.02% BSA, 0.2% acetic acid
# In short: as §2
# [9] = test system: clinical strains of S. aureus; assay: MIC, microdilution, clinical strains; details: 0.02% BSA, 0.2% acetic acid
# In short: as §2
# [10] = test system: clinical strains of E. cloacae; assay: MIC, microdilution, clinical strains; details: 0.02% BSA, 0.2% acetic acid
# In short: as §2
# [11] = test system: clinical strains of K. pneumoniae; assay: MIC, microdilution, clinical strains; details: 0.02% BSA, 0.2% acetic acid
# In short: as §2
# [12] = test system: C. quillermondiae; assay: MIC, clinical yeast strains; parameters: Minimum inhibitory concentration: unit: μg/ml; details: C. quillermondiae clinical yeast strain 1
# In short: as §1
# [13] = test system: clinical strains of Acinetobacter baumannii; assay: MIC, microdilution, clinical strains; parameters: unit: μg/ml; details: 0.02% BSA, 0.2% acetic acid
# In short: as §2
# [14] = test system: clinical strains of A. johnsonii; assay: MIC, microdilution, clinical strains; parameters: unit: μg/ml; details: Acinetobacter johnsonii strain 1, Muller Hinton broth-cation adjusted, 0.02% BSA, 0.2% acetic acid
# In short: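 Overnight MH agar colonies were suspended in MH broth to 5.0×10^5 cfu/ml, mixed with serial peptide dilutions (0.125–128 μg/ml) and incubated at 37° C for 20 to 24 hours. Yeast MICs were run the same way in potato dextrose broth, and wells were scored visually.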
# [15] = C. parapsilosis clinical yeast strain 1
# [16] = C. parapsilosis clinical yeast strain 2
# [17] = C. parapsilosis clinical yeast strain 3
# [18] = C. parapsilosis clinical yeast strain 4
# [19] = Candida albicans clinical yeast strain 1
# [20] = Candida albicans clinical yeast strain 2
# [21] = Candida albicans clinical yeast strain 3
# [22] = Candida albicans clinical yeast strain 4
# [23] = Candida albicans clinical yeast strain 5
# [24] = C. glabrata clinical yeast strain 1
# [25] = C. glabrata clinical yeast strain 2
# [26] = C. glabrata clinical yeast strain 3
# [27] = C. glabrata clinical yeast strain 4
# [28] = Proteus mirabilis strain 1, Muller Hinton broth-cation adjusted
# [29] = Proteus mirabilis strain 2, Muller Hinton broth-cation adjusted
# [30] = Proteus mirabilis strain 3, Muller Hinton broth-cation adjusted
# [31] = Proteus mirabilis strain 4, Muller Hinton broth-cation adjusted
# [32] = Proteus mirabilis strain 5, Muller Hinton broth-cation adjusted
# [33] = Escherichia coli strain 1, microdilution, Muller Hinton broth-cation adjusted, 0.02% BSA, 0.2% acetic acid
# [34] = Escherichia coli strain 2, microdilution, Muller Hinton broth-cation adjusted, 0.02% BSA, 0.2% acetic acid
# [35] = Escherichia coli strain 3, microdilution, Muller Hinton broth-cation adjusted, 0.02% BSA, 0.2% acetic acid
# [36] = Escherichia coli strain 4, microdilution, Muller Hinton broth-cation adjusted, 0.02% BSA, 0.2% acetic acid
# [37] = Escherichia coli strain 5, microdilution, Muller Hinton broth-cation adjusted, 0.02% BSA, 0.2% acetic acid
# [38] = Streptococcus pneumoniae strain 1, Muller Hinton broth-cation adjusted
# [39] = Streptococcus pneumoniae strain 2, Muller Hinton broth-cation adjusted
# [40] = Streptococcus pneumoniae strain 3, Muller Hinton broth-cation adjusted
# [41] = Streptococcus pneumoniae strain 4, Muller Hinton broth-cation adjusted
# [42] = Streptococcus pneumoniae strain 5, Muller Hinton broth-cation adjusted
# [43] = Serratia marcescens strain 1, Muller Hinton broth-cation adjusted
# [44] = Serratia marcescens strain 2, Muller Hinton broth-cation adjusted
# [45] = Serratia marcescens strain 3, Muller Hinton broth-cation adjusted
# [46] = Serratia marcescens strain 4, Muller Hinton broth-cation adjusted
# [47] = Serratia marcescens strain 5, Muller Hinton broth-cation adjusted
# [48] = Pseudomonas aeruginosa strain 1, Muller Hinton broth-cation adjusted
# [49] = Pseudomonas aeruginosa strain 2, Muller Hinton broth-cation adjusted
# [50] = Pseudomonas aeruginosa strain 3, Muller Hinton broth-cation adjusted
# [51] = Pseudomonas aeruginosa strain 4, Muller Hinton broth-cation adjusted
# [52] = Pseudomonas aeruginosa strain 5, Muller Hinton broth-cation adjusted
# [53] = Staphylococcus aureus strain 1, Muller Hinton broth-cation adjusted
# [54] = Staphylococcus aureus strain 2, Muller Hinton broth-cation adjusted
# [55] = Staphylococcus aureus strain 3, Muller Hinton broth-cation adjusted
# [56] = Staphylococcus aureus strain 4, Muller Hinton broth-cation adjusted
# [57] = Staphylococcus aureus strain 5, Muller Hinton broth-cation adjusted
# [58] = Enterobacter cloacae strain 1, Muller Hinton broth-cation adjusted
# [59] = Enterobacter cloacae strain 2, Muller Hinton broth-cation adjusted
# [60] = Enterobacter cloacae strain 3, Muller Hinton broth-cation adjusted
# [61] = Enterobacter cloacae strain 4, Muller Hinton broth-cation adjusted
# [62] = Enterobacter cloacae strain 5, Muller Hinton broth-cation adjusted
# [63] = Klebsiella pneumoniae strain 1, Muller Hinton broth-cation adjusted
# [64] = Klebsiella pneumoniae strain 2, Muller Hinton broth-cation adjusted
# [65] = Klebsiella pneumoniae strain 3, Muller Hinton broth-cation adjusted
# [66] = Klebsiella pneumoniae strain 4, Muller Hinton broth-cation adjusted
# [67] = Klebsiella pneumoniae strain 5, Muller Hinton broth-cation adjusted
# [68] = Acinetobacter baumannii strain 1, Muller Hinton broth-cation adjusted
# [69] = Acinetobacter baumannii strain 2, Muller Hinton broth-cation adjusted
# [70] = Acinetobacter baumannii strain 3, Muller Hinton broth-cation adjusted
# [71] = Acinetobacter baumannii strain 4, Muller Hinton broth-cation adjusted
# [72] = Acinetobacter baumannii strain 5, Muller Hinton broth-cation adjusted
compound,measurement,setting,value
CC(C)C[C@@H](NC(=O)[C@H](N)CCCNC(=N)N)C(=O)N[C@H](CCCCN)C(=O)N[C@H](Cc1c[nH]c2ccccc12)C(=O)N[C@H](Cc1ccccc1)C(=O)N[C@H](CC(C)C)C(=O)N[C@H](CC(C)C)C(=O)N[C@H](Cc1ccccc1)C(=O)N[C@H](CCCNC(=N)N)C(=O)N[C@H](CCCCN)C(=O)N[C@H](CCCNC(=N)N)C(=O)O [Chain308D] (H-[dR][dL][dK][dW][dF][dL][dL][dF][dR][dK][dR]-OH),Minimum inhibitory concentration,[1]; [15],8
same,Minimum inhibitory concentration,[1]; [16],8
same,Minimum inhibitory concentration,[1]; [17],8
same,Minimum inhibitory concentration,[1]; [18],4
same,Minimum inhibitory concentration,[2]; [19],16
same,Minimum inhibitory concentration,[2]; [20],16
same,Minimum inhibitory concentration,[2]; [21],16
same,Minimum inhibitory concentration,[2]; [22],16
same,Minimum inhibitory concentration,[2]; [23],16
same,Minimum inhibitory concentration,[3]; [24],16
same,Minimum inhibitory concentration,[3]; [25],16
same,Minimum inhibitory concentration,[3]; [26],16
same,Minimum inhibitory concentration,[3]; [27],16
same,Minimum inhibitory concentration,[4]; [28],>128
same,Minimum inhibitory concentration,[4]; [29],32
same,Minimum inhibitory concentration,[4]; [30],128
same,Minimum inhibitory concentration,[4]; [31],>128
same,Minimum inhibitory concentration,[4]; [32],>128
same,Minimum inhibitory concentration,[5]; [33],1
same,Minimum inhibitory concentration,[5]; [34],0.5
same,Minimum inhibitory concentration,[5]; [35],1
same,Minimum inhibitory concentration,[5]; [36],1
same,Minimum inhibitory concentration,[5]; [37],1
same,Minimum inhibitory concentration,[6]; [38],8
same,Minimum inhibitory concentration,[6]; [39],4
same,Minimum inhibitory concentration,[6]; [40],8
same,Minimum inhibitory concentration,[6]; [41],2
same,Minimum inhibitory concentration,[6]; [42],4
same,Minimum inhibitory concentration,[7]; [43],128
same,Minimum inhibitory concentration,[7]; [44],128
same,Minimum inhibitory concentration,[7]; [45],64
same,Minimum inhibitory concentration,[7]; [46],>128
same,Minimum inhibitory concentration,[7]; [47],128
same,Minimum inhibitory concentration,[8]; [48],8
same,Minimum inhibitory concentration,[8]; [49],8
same,Minimum inhibitory concentration,[8]; [50],4
same,Minimum inhibitory concentration,[8]; [51],4
same,Minimum inhibitory concentration,[8]; [52],4
same,Minimum inhibitory concentration,[9]; [53],1
same,Minimum inhibitory concentration,[9]; [54],2
same,Minimum inhibitory concentration,[9]; [55],1
same,Minimum inhibitory concentration,[9]; [56],2
same,Minimum inhibitory concentration,[9]; [57],2
same,Minimum inhibitory concentration,[10]; [58],2
same,Minimum inhibitory concentration,[10]; [59],2
same,Minimum inhibitory concentration,[10]; [60],2
same,Minimum inhibitory concentration,[10]; [61],2
same,Minimum inhibitory concentration,[10]; [62],2
same,Minimum inhibitory concentration,[11]; [63],4
same,Minimum inhibitory concentration,[11]; [64],4
same,Minimum inhibitory concentration,[11]; [65],4
same,Minimum inhibitory concentration,[11]; [66],4
same,Minimum inhibitory concentration,[11]; [67],4
same,Minimum inhibitory concentration,[12],4
same,Minimum inhibitory concentration,[13]; [68],4
same,Minimum inhibitory concentration,[13]; [69],4
same,Minimum inhibitory concentration,[13]; [70],4
same,Minimum inhibitory concentration,[13]; [71],2
same,Minimum inhibitory concentration,[13]; [72],2
same,Minimum inhibitory concentration,[14],4
CC(C)C[C@@H](NC(=O)[C@H](N)CCCNC(=N)N)C(=O)N[C@H](CCCCN)C(=O)N[C@H](CCCNC(=N)N)C(=O)N[C@H](Cc1c[nH]c2ccccc12)C(=O)N[C@H](CCCNC(=N)N)C(=O)N[C@H](CC(C)C)C(=O)N[C@H](Cc1ccccc1)C(=O)N[C@H](CCCNC(=N)N)C(=O)N[C@H](CCCCN)C(=O)N[C@H](CCCNC(=N)N)C(=O)O [Chain306D] (H-[dR][dL][dK][dR][dW][dR][dL][dF][dR][dK][dR]-OH),Minimum inhibitory concentration,[1]; [15],8
same,Minimum inhibitory concentration,[1]; [16],16
same,Minimum inhibitory concentration,[1]; [17],16
same,Minimum inhibitory concentration,[1]; [18],4
same,Minimum inhibitory concentration,[2]; [19],16
same,Minimum inhibitory concentration,[2]; [20],8
same,Minimum inhibitory concentration,[2]; [21],8
same,Minimum inhibitory concentration,[2]; [22],16
same,Minimum inhibitory concentration,[2]; [23],16
same,Minimum inhibitory concentration,[3]; [24],8
same,Minimum inhibitory concentration,[3]; [25],8
same,Minimum inhibitory concentration,[3]; [26],16
same,Minimum inhibitory concentration,[3]; [27],32
same,Minimum inhibitory concentration,[4]; [28],>128
same,Minimum inhibitory concentration,[4]; [29],>128
same,Minimum inhibitory concentration,[4]; [30],>128
same,Minimum inhibitory concentration,[4]; [31],>128
same,Minimum inhibitory concentration,[4]; [32],>128
same,Minimum inhibitory concentration,[5]; [33],1
same,Minimum inhibitory concentration,[5]; [34],2
same,Minimum inhibitory concentration,[5]; [35],2
same,Minimum inhibitory concentration,[5]; [36],2
same,Minimum inhibitory concentration,[5]; [37],2
same,Minimum inhibitory concentration,"[5]; clinical strains, peptide synthesized as D-form amino acids",1 µg/mL
same,Minimum inhibitory concentration,[6]; [38],64
same,Minimum inhibitory concentration,[6]; [39],64
same,Minimum inhibitory concentration,[6]; [40],64
same,Minimum inhibitory concentration,[6]; [41],128
same,Minimum inhibitory concentration,[6]; [42],64
same,Minimum inhibitory concentration,[7]; [43],>128
same,Minimum inhibitory concentration,[7]; [44],>128
same,Minimum inhibitory concentration,[7]; [45],>128
same,Minimum inhibitory concentration,[7]; [46],>128
same,Minimum inhibitory concentration,[7]; [47],>128
same,Minimum inhibitory concentration,[8]; [48],128
same,Minimum inhibitory concentration,[8]; [49],>128
same,Minimum inhibitory concentration,[8]; [50],128
same,Minimum inhibitory concentration,[8]; [51],>128
same,Minimum inhibitory concentration,[8]; [52],128
same,Minimum inhibitory concentration,[9]; [53],16
same,Minimum inhibitory concentration,[9]; [54],32
same,Minimum inhibitory concentration,[9]; [55],32
same,Minimum inhibitory concentration,[9]; [56],16
same,Minimum inhibitory concentration,[9]; [57],8
same,Minimum inhibitory concentration,[10]; [58],64
same,Minimum inhibitory concentration,[10]; [59],64
same,Minimum inhibitory concentration,[10]; [60],32
same,Minimum inhibitory concentration,[10]; [61],16
same,Minimum inhibitory concentration,[10]; [62],16
same,Minimum inhibitory concentration,[11]; [63],128
same,Minimum inhibitory concentration,[11]; [64],>128
same,Minimum inhibitory concentration,[11]; [65],>128
same,Minimum inhibitory concentration,[11]; [66],64
same,Minimum inhibitory concentration,[11]; [67],64
same,Minimum inhibitory concentration,[12],4
same,Minimum inhibitory concentration,[13]; [68],16
same,Minimum inhibitory concentration,[13]; [69],32
same,Minimum inhibitory concentration,[13]; [70],16
same,Minimum inhibitory concentration,[13]; [71],16
same,Minimum inhibitory concentration,[13]; [72],8
same,Minimum inhibitory concentration,[14],16
